The test system of one data set is anti-nicotine antibodies. The experiment in a line: Competition ELISA to determine specificity of antibodies induced by anti-nicotine vaccines. It is filed as binding, mouse. The conditions noted are these: plasma of mice immunized with conjugates of examples 1 and 2; inhibitors diluted serially from 20,000 μM. On the technique in general: ELISA stands for enzyme-linked immunosorbent assay.

Data set [1] can be described thus: Dissolution of hapten-spacer conjugate for coupling. It is filed as physicochemical. The conditions noted are these: at 50 mg per ml. The protocol: a) The hapten-spacer conjugates were obtained as a yellow oil and stored at 2 to 8° C. until the day of use (for up to one week, longer storage was at −20° C.). […] The result was a yellow-brown suspension or solution.

Source text for anti-nicotine antibodies: Competition ELISA to Determine Specificity of Antibodies Induced by Anti-Nicotine Vaccines.

For `c1cnc2cc3c(cc2n1)[C@@H]1CNC[C@H]3C1` [varenicline], the “inhibition of binding of anti-nicotine antibodies to nicotine-coated ELISA plates by added inhibitor” value in the data set on anti-nicotine antibodies is recorded as “no such effect is observed”. As to `CN1CCC[C@H]1c1cncc(CCCNC(=O)CCCCCCN)c1` [Preparation 33, 7-amino-N-(3-{5-[(2S)-1-methylpyrrolidin-2-yl]pyridin-3-yl}propyl) heptanamide], the “solubility in deionised water” value in data set [1] is “did not dissolve fully in deionised water”. For the compound `CN1C(=O)CC[C@H]1c1cccnc1` [cotinine], the “inhibition of binding of anti-nicotine antibodies to nicotine-coated ELISA plates by added inhibitor” value with anti-nicotine antibodies is given as “no such effect is observed”. Still for that read-out and setting: under `CN1CCCC1c1cccnc1` (stereo not shown) [nicotine] stands “dose-dependent inhibition of binding”.

For the origin of these results see US8980276B2, “Conjugates for the prevention or treatment of nicotine addiction” (Pfizer Inc, priority 2010, dated 2015).
